Measurements: patent US20040192672A1, “Iodobenzopyran-4-one derivatives having fungicidal activity” (priority 2001, published 2004)

Assays:
Format in all cases: in vivo
[1] = system: wheat powdery mildew (Blumeria graminis); assay: Field test of intensity of attack on winter wheat; settings: 125 g of active ingredient/ha per application (A and B), 52 days after Application B, winter wheat field plots
Description: (§1) The compounds were tested for their activity against wheat powdery mildew (Blumeda graminis).
(§2) Winter wheat (Appolo variety) was planted in France (department of Marne) in 1 m^2 plots, at the rate of 200 kg/ha (soil: coloured rendzina) at a depth of 3 cm. The compounds of the invention were applied to the wheat plants in two portions: Application A at the 1 cm ear stage and then Application B at the second visible node stage. Each of these applications was carried out by spraying an aqueous solution of the compounds at a dose of 125 g of active ingredient/ha.
(§3) During Application A, the intensity of attack by the fungus Blumeria graminis is estimated at 3% of the total foliar volume.
The tests of intensity of attack are carried out 52 days after Application B by evaluating the percentage of affected surface area of the second leaves (counted from the ear).

[2] = system: wheat powdery mildew (Blumeria graminis); assay: Field test of frequency of attack on winter wheat; settings: 125 g of active ingredient/ha per application (A and B), same conditions as Table 1
Description: as §1, §2, §3
Under the same conditions, a test of frequency of attack was performed by evaluating the percentage of second leaf (from the ear) attacked by the fungus Blumeria graminis.

[3] = system: powdery mildew (Blumeria graminis f. sp. tritici) strains resistant to strobilurin derivatives; assay: Greenhouse test on pathogenic strains resistant to strobilurin derivatives; settings: wheat, 13 days of incubation
Description: This example gives an illustration of the biological efficacy of the compounds of formula (I) on pathogenic strains resistant to strobilurin derivatives.
The experiment was performed in a greenhouse.
Resistant strains were isolated and samples taken in 2001 in the north of Germany in the Bremen region in a place treated with pyraclostrobin and with picoxystrobin. These strains are characterized by their resistance to these strobilurin-type compounds. They were then kept in a controlled-environment chamber on wheat plants (Kanzler variety) treated with trifloxystrobin.
The tested compounds were sprayed on the wheat plants using solutions for application diluted in water to a volume equivalent to 250 l/ha. 24 h later, the plants were inoculated with powdery mildew (Blumeria graminis f. sp. tritici).
The extent of the disease was evaluated on each plant after 13 days of incubation.

[4] = system: wheat powdery mildew (Blumeria graminis f. sp. tritici); assay: Greenhouse preventive synergy test, wheat powdery mildew
Description: (§4) This example gives an illustration of the synergistic effect obtained using the compounds according to the invention in the form of a mixture with compounds of the strobilurin type, in particular trifloxystrobin, triazole, in particular fluquinconazole. The compounds according to the invention were tested in a greenhouse under preventive conditions.
(§5) The combinations of active ingredients in Table 4 were evaluated.
(§6) The compounds and mixtures tested were sprayed on wheat plants:
(§7) volume for application equivalent to 250 l/ha.
(§8) On the day following the application, the wheat plants were inoculated with powdery mildew (Blumeria graminis f. sp. tritici), brown rust (Puccinia recondita), glume blotches (Septoria tritici and Septoria nodorum) and the barley plants with powdery mildew (Blumeria graminis f. sp. hordei). Once the diseases had developed, the evaluation was made by determining the extent of disease per pot.
(§9) The level of synergy was calculated using the Colby formula in order to calculate the theoretical efficacy and to compare it to the observed efficacy:
(§10) Theoretical efficacy of A+B=efficacy of A (%)+efficacy of B (%)−[efficacy of A (%)×efficacy of B (%)/100]

[5] = system: barley powdery mildew (Blumeria graminis f. sp. hordei); assay: Greenhouse preventive synergy test, barley powdery mildew
Description: as §4, §5, §6, §7, §8, §9, §10

[6] = system: wheat brown rust (Puccinia recondita); assay: Greenhouse preventive synergy test, wheat brown rust
Description: as §4, §5, §6, §7, §8, §9, §10

[7] = system: wheat glume blotch (Septoria tritici); assay: Greenhouse preventive synergy test, wheat glume blotch (Septoria tritici)
Description: as §4, §5, §6, §7, §8, §9, §10

[8] = system: wheat glume blotch (Septoria nodorum); assay: Greenhouse preventive synergy test, wheat glume blotch (Septoria nodorum)
Description: as §4, §5, §6, §7, §8, §9, §10

Row | Structure (SMILES) | % affected surface area per (second) leaf [1] | % of second leaf attacked [2] | Percentage of leaves affected by powdery mildew ([3]; 31 g/ha) | Percentage of leaves affected by powdery mildew ([3]; 62 g/ha) | Observed efficacy ([4]; Table 5, 6 g/ha) | Observed efficacy ([4]; Table 10, 16 g/ha) | Observed efficacy ([5]; Table 6, 12 g/ha) | Observed efficacy ([5]; Table 11, 16 g/ha) | also measured
1 | CCCc1c(OCC)oc2ccc(I)cc2c1=O [Compound 1, 2-ethoxy-6-iodo-3-propylbenzopyran-4-one] | 0.56% | 28.0% | 0% | 0% | 25% | 50% | 50% | 50% | Observed efficacy ([4]; Table 10, 6 g/ha): 25%; Observed efficacy ([4]; Table 10, 25 g/ha): 75%; Observed efficacy ([5]; Table 11, 25 g/ha): 75%; Observed efficacy ([6]; Table 7, 50 g/ha): 0%; Observed efficacy ([7]; Table 8, 50 g/ha): 0%; Observed efficacy ([8]; Table 9, 50 g/ha): 0%
2 | CCCOc1oc2ccc(I)cc2c(=O)c1CCC [Compound 2, 6-iodo-2-propoxy-3-propylbenzopyran-4-one] | 2.53% |  |  |  |  |  |  |  | 
3 | CCCCOc1oc2ccc(I)cc2c(=O)c1CCC [Compound 3, 2-butoxy-6-iodo-3-propylbenzopyran-4-one] | 2.51% | 54.0% |  |  |  |  |  |  | 
4 | Fc1ccc(Oc2ccnc3cc(Cl)cc(Cl)c23)cc1 [Compound B, quinoxyfen] | 4.91% | 73.3% |  |  |  |  |  |  | 
5 | CON=C(C(=O)OC)c1ccccc1CON=C(C)c1cccc(C(F)(F)F)c1 [Trifloxystrobin] |  |  | 100% | 100% |  | 30% |  | 0% | Percentage of leaves affected by powdery mildew ([3]; 125 g/ha): 100%; Percentage of leaves affected by powdery mildew ([3]; 250 g/ha): 100%; Observed efficacy ([4]; Table 10, 31 g/ha): 40%; Observed efficacy ([4]; Table 10, 62 g/ha): 50%; Observed efficacy ([5]; Table 11, 62 g/ha): 0%
6 | O=c1c2cc(F)ccc2nc(-n2cncn2)n1-c1ccc(Cl)cc1Cl [fluquinconazole] |  |  |  |  | 0% |  | 25% |  | Observed efficacy ([4]; Table 5, 12 g/ha): 0%; Observed efficacy ([4]; Table 5, 31 g/ha): 0%; Observed efficacy ([5]; Table 6, 25 g/ha): 25%; Observed efficacy ([5]; Table 6, 62 g/ha): 75%; Observed efficacy ([6]; Table 7, 100 g/ha): 60%; Observed efficacy ([7]; Table 8, 100 g/ha): 60%; Observed efficacy ([8]; Table 9, 100 g/ha): 75%
